# Data taken from US11447485B2, “Class of bifunctional compounds with quanternary ammonium salt structure” (Beijing Showby Pharmaceutical Co., Ltd., priority 2016, dated 2022).
# Where two headings read alike, the source gives them in different places.
# Key:
# [1] = Liver microsome metabolic stability in vitro (SD rat); conditions: SD rat liver microsomes
# Protocol: (§1) The area ratio of the 0 min sample was taken as 100%, and the remaining percentage of the compound after incubation at different times was obtained at each time point by comparison with the sample. With the natural logarithm of this percentage on the ordinate and time on the abscissa, a scatter plot was drawn to simulate a straight line with a negative slope of k. The parameters were calculated according to the formula.
# (§2) Liver weight indicates the liver weight (g) per kilogram of body weight, and P450 indicates the amount (mg) of P450 enzyme per gram of liver.
# [2] = Liver microsome metabolic stability in vitro (Beagle dog); conditions: Beagle dog liver microsomes
# Protocol: as §1, §2
# [3] = test system: heart rate of Beagle dogs; test: Heart rate changes after iv administration in Beagle dogs; assay type: in vivo, Beagle dog
# Protocol: Beagle dogs were randomly divided into two groups, half male and half female, and were intravenously injected (iv) with 7.5% ethanol solution of compounds of the invention and control compound. Each compound was set up in two dosage groups of 0.01 mg/kg and 0.10 mg/kg.
# [4] = Liver microsome metabolic stability in vitro (human); conditions: Human liver microsomes
# Protocol: as §1, §2
# [5] = test system: bronchoconstriction response in the trachea of guinea pig induced by Mch; test: Bronchoconstriction induced by methacholine (Mch) in anaesthetized guinea pigs, airway dripping (Raw, Cdyn); conditions: Mch 10 μg/kg iv; for Cdyn (ml/cmH2O) / Raw (cmH2O/ml/s): 30 min, Mean ± S.E.M
# [6] = test system: tracheal smooth muscle of guinea pig; test: Relaxation of CCh-induced constriction of isolated guinea pig tracheal smooth muscle (Experimental Example 1); conditions: for Onset time (min) ± SD / Time for eliminating inhibition effect (min): CCh 3 × 10^−6 mol/L; for EC50: Cavia porcellus, read-out: EC50 (μM) ± SD
# Protocol: The upper end was connected with a muscle tension transducer, and the specimen was given a resting tension of 1.0 g. Muscle tension changes were recorded, nutrient solution was changed every 20 min, and the experiment was started after 60 min of equilibrium.
# Administration Method: After the trachea flake were stabilized, 3×10^−6 mol/L CCh was added to the bath. […] Diastolic condition of the trachea flake was observed. If no response occurred (below the threshold concentration), the next dosage was continued to be added in the order. If any response occurred, the next dosage was added until its diastolic platform was reached. The above operation was repeated until the shrink curve reached the minimum. Finally, 10^−6 mol/L isoproterenol was added to establish maximum relaxation, and the curve was recorded.
# Statistical Methods: Statistics was performed using the Sigma Stat statistical software package, the data was analyzed by using the variance analysis. Student-Newman-Keuls (SNK) test was used in comparison among multiple sample averages number. The statistical test level was α=0.05 (bilateral).
# [7] = target: T1, human recombinant β2 adrenoceptor (Homo sapiens, UniProt P07550); test: cell-based; assay type: cell-based; conditions: EC50 (β1)/EC50 (β2)
# T1 construct: expressed in transfected cells
# [8] = test system: M receptor of guinea pig tracheal smooth muscle; test: MA activity: guinea pig isolated trachea, propranolol blocks β receptor, CCh constriction; conditions: Cavia porcellus; propranolol 10^−5 mol/L, CCh 3×10^−6 mol/L
# Protocol: (2) Blocking Effect of Example Compounds on M Receptor of Guinea Pig Tracheal Smooth Muscle
# Preparation of an isolated tracheal smooth muscle specimen of a guinea pig: same as Experiment Example 1.
# Administration method: After trachea flake was stabilized, propranolol hydrochloride solution with a final concentration of 10^−5 mol/L was added to block β receptor for 10 min, carbachol with a final concentration of 3×10^−6 mol/L was added (observing M receptor antagonism of compound after propranolol blocks β receptor), and administration was started when the pressure value of the trachea flake was increased to a stable platform. The experiments were divided into a blank group, a propranolol+blank group, each test sample administration group and a propranolol+each test sample administration group. DMSO solution prepared by K—H solution and 50 μl of test sample solution were added to each group of the blank group and each test sample administration group respectively. The propranolol+blank group and propranolol+each test sample administration group were added with 50 μl propranolol solution for 10 min respectively, and then added with DMSO solution prepared from K—H solution and 50 μl of test sample solution. The test sample administration group was added with the compounds to be tested with final concentrations of 10^−9, 0.3×10^−8, 10^−8, 0.3×10^−7, 10^−7, 0.3×10^−6 and 10^−6 mol/L at cumulative concentration, and the blank group was added with corresponding diluted DMSO solution. The propranolol+each test sample administration group was added with propranolol for 10 min, and then added with the compounds to be tested with final concentrations of 10^−9, 0.3×10^−8, 10^−8, 0.3×10^−7, 10^−7, 0.3×10^−6 and 10^−6 mol/L at cumulative concentration. After the propranolol+blank group was added with propranolol for 10 min, corresponding diluted DMSO solution was added. Medlab was used to record the relaxation degree of tracheal smooth muscle, finally sodium nitroprusside with a final concentration of […] was added as 100% relaxation.
# [9] = in vitro, listed as Tiotropium bromine
# T1 sequence (P07550 whole entry): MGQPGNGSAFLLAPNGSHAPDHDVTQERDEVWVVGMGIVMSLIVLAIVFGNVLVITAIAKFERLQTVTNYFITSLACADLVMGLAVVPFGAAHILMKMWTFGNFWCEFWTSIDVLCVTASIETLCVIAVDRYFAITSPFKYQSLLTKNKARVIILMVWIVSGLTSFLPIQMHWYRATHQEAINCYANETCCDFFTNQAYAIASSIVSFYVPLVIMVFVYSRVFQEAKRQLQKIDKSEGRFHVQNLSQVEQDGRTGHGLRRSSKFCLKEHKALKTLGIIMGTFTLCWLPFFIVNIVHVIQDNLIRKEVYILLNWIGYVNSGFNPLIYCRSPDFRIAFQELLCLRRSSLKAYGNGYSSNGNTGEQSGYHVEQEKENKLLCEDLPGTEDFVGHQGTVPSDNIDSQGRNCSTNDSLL
SMILES,Cdyn (ml/cmH2O) ([5]; 0.1 μg/kg airway dripping),Raw (cmH2O/ml/s) ([5]; 0.1 μg/kg airway dripping),inhibitory rate of lung dynamic compliance decrease ([5]; 0.1 μg/kg airway dripping) [%],inhibitory rate on airway resistance increase ([5]; 0.1 μg/kg airway dripping) [%],Cdyn (ml/cmH2O) ([5]; 0.3 μg/kg airway dripping),Raw (cmH2O/ml/s) ([5]; 0.3 μg/kg airway dripping),inhibitory rate of lung dynamic compliance decrease ([5]; 0.3 μg/kg airway dripping) [%],inhibitory rate on airway resistance increase ([5]; 0.3 μg/kg airway dripping) [%],Cdyn (ml/cmH2O) ([5]; 1 μg/kg airway dripping),Raw (cmH2O/ml/s) ([5]; 1 μg/kg airway dripping),inhibitory rate of lung dynamic compliance decrease ([5]; 1 μg/kg airway dripping) [%],inhibitory rate on airway resistance increase ([5]; 1 μg/kg airway dripping) [%],Onset time (min) ± SD ([6]; in vitro),Time for eliminating inhibition effect (min) ([6]; in vitro),EC50 [6] [µM],sel (β1/β2) [7],also measured
"C[N+]1(C)CCC(OC(=O)Nc2cc(CCC(=O)Nc3ccc(CNC[C@H](O)c4ccc(O)c5[nH]c(=O)ccc45)cc3)ccc2-c2ccccc2)CC1.O=C([O-])C(F)(F)F [4-({[5-(2-{[4-({[(2R)-2-hydroxy-2-(8-hydroxy-2-oxo-1,2-dihydroquinolin-5-yl)ethyl]amino}methyl)phenyl]carbamoyl}ethyl)-2-phenylphenyl]carbamoyl}oxy)-1,1-dimethylpiperidin-1-onium trifluoroacetate, reference compound]",,,,,,,,,,,,,,,,,liver extraction rate (ERh) [1]: 0.48; liver extraction rate (ERh) [2]: 0.43; 0.5-4 h area increase under heart rate curve (%) ([3]; 0.01 mg/kg iv): 35.2%; 0.5-4 h area increase under heart rate curve (%) ([3]; 0.10 mg/kg iv): 109%; liver extraction rate (ERh) [4]: 0.36
"O=c1ccc2c([C@@H](O)CNCCCCCCCCCN3CCC(Cn4cnc([C@](O)(c5ccccc5)C5CCCCC5)n4)CC3)ccc(O)c2[nH]1 [5-[(1R)-2-({9-[4-({3-[(R)-cyclohexyl(hydroxy)benzyl)-1H-1,2,4-triazol-1-yl}methyl)piperidin-1-yl]nonyl}amino)-1-hydroxyethyl]-8-hydroxyquinolin-2(1H)-one, reference compound]",,,,,,,,,,,,,,,,,liver extraction rate (ERh) [1]: 0.42; liver extraction rate (ERh) [2]: 0.36; 0.5-4 h area increase under heart rate curve (%) ([3]; 0.01 mg/kg iv): 69.7%; 0.5-4 h area increase under heart rate curve (%) ([3]; 0.10 mg/kg iv): 152%; liver extraction rate (ERh) [4]: 0.62
OCc1cc([C@@H](O)CNCCOCCCOCC[N+]23CCC(CC2)[C@@H](OC[C@@](O)(c2ccccc2)C2CCCC2)C3)ccc1O.[Br-] [Compound 48],0.115 ± 0.011,0.712 ± 0.065,32.2,66.2,0.139 ± 0.012,0.523 ± 0.032,48.9,88.3,0.207 ± 0.016,0.493 ± 0.071,50.1,91.6,6.32 ± 0.49 min,more than 300 min,0.0154 ± 0.012,423.8,
COc1cc(C(C)NC[C@H](O)c2ccc(O)c(CO)c2)ccc1OCCC[N+]12CCC(CC1)[C@@H](OC[C@@](O)(c1ccccc1)C1CCCC1)C2.[Br-] (stereo partly drawn) [Compound 70],0.218 ± 0.013,0.702 ± 0.098,34.2,69.6,0.357 ± 0.087,0.613 ± 0.107,47.8,86.5,0.345 ± 0.076,0.431 ± 0.095,49.3,92.1,7.15 ± 0.31 min,more than 300 min,0.0183 ± 0.0087,379.8,
CC(C)(Cc1ccc(OCC[N+]23CCC(CC2)[C@@H](OC[C@@](O)(c2ccccc2)C2CCCCC2)C3)cc1)NC[C@H](O)c1ccc(O)c(NC=O)c1.[Br-] [Compound 99],0.120 ± 0.017,0.778 ± 0.073,35.0,73.5,0.158 ± 0.021,0.528 ± 0.082,48.8,86.8,0.223 ± 0.035,0.421 ± 0.069,49.7,91.9,7.35 ± 0.33 min,more than 300 min,0.0172 ± 0.0072,389,
COc1cc(NC(=O)CC[N+]23CCC(CC2)[C@@H](OC[C@@](O)(c2ccccc2)C2CCCC2)C3)c(Cl)cc1CNC[C@H](O)c1ccc(O)c(NC=O)c1.[Br-] [Compound 138],0.124 ± 0.019,0.687 ± 0.079,31.0,74.8,0.158 ± 0.036,0.508 ± 0.093,48.2,88.9,0.231 ± 0.022,0.418 ± 0.086,49.9,92.6,6.56 ± 0.23 min,more than 300 min,0.0186 ± 0.0033,228.3,
COC1CCC([C@@](O)(CO[C@H]2C[N+]3(CCC(=O)Nc4ccc(CNC[C@H](O)c5ccc(O)c(NC=O)c5)cc4)CCC2CC3)c2ccccc2)C1.[Br-] (stereo partly drawn) [Compound 141],,,,,,,,,,,,,5.88 ± 0.26 min,more than 300 min,0.0363 ± 0.0095,135.9,
"C[N+]1(C)[C@@H]2C[C@@H](OC(=O)C(O)(c3cccs3)c3cccs3)C[C@H]1[C@@H]1O[C@@H]12 [Tiotropium Bromide, tiotropium bromide, reference compound]",,,,,,,,,,,,,slow,long duration of action,,,"EC50 [8]: 12.2 ± 0.8 nM; Onset time (min) ± SD [6, 9]: 30.37 ± 0.50 min; Time for eliminating inhibition effect (min) [6, 9]: more than 300 min; EC50 ([6]; constriction induced by CCh 3 × 10^−6 mol/L, in vitro): 0.0142 ± 0.0022 µM"
